The test system of test [1] is aldose reductase. Kind of test: Reduction of sciatic nerve sorbitol levels in streptozotocin-diabetic rats (inhibition of aldose reductase in vivo). More on the design: species or system rat. As to conditions: 5 daily oral doses of 3 mg/kg. How it is done:
Rats are made diabetic (as evidenced by severe glucosuria being present) by dosing with streptozotocin. The animals are then dosed daily with the test compound for one, two or five days. The animals are then sacrificed 2-6 hours after the final dose and the eye lenses and/or sciatic nerves are removed. After a standard work-up procedure the residual sorbitol levels in each tissue are determined by gas liquid chromatography after conversion to the polytrimethylsilyl derivatives. Inhibition of aldose reductase in vivo can then be assessed by comparing the residual sorbitol levels in tissues from the dosed diabetic group of rats with those of an undosed group of diabetic rats and an undosed group of normal rats.
In a variation of the above test diabetic rats are dosed at a fixed daily oral dose for five days and then sacrificed 6 hours after the final dose and the reduction of sciatic nerve sorbitol assessed relative to that in control animals.

Test [2] addresses T1, aldose reductase (Bos taurus, UniProt P16116).
T1 construct: partially purified aldose reductase is isolated in known manner from bovine lenses; from tissue; host or cells: bovine lens
Kind of test: In vitro inhibition of partially purified bovine lens aldose reductase (spectrophotometric). Format: biochemical. As to conditions: partially purified aldose reductase from bovine lenses. The text has this:
Thus, in a standard procedure partially purified aldose reductase is isolated in known manner from bovine lenses. The percentage inhibition of this enzyme's ability in vitro to catalyse the reduction of aldoses to polyhydric alcohols, and particularly to reduce glucose to sorbitol, caused by a test compound can then be determined using standard spectrophotometric methods.

As a reminder, the IC50 is the concentration that inhibits the measured activity by half. Lower therefore signals inhibition by little substance. Regarding `Cc1cc(NC(=O)COc2ccccc2)cc(C)c1S(=O)(=O)C[N+](=O)[O-]` [Example 1, (2,6-dimethyl-4-[2-phenoxyacetamido]phenylsulfonyl)nitromethane], the “reduction in sciatic nerve sorbitol levels” value in the test with aldose reductase [1] turned out to be 78%. The same molecule had a 50% inhibitory concentration (IC50) on aldose reductase [2] of 0.044 µM.

The values above are taken from patent US5250570A, “Amidobenzene derivatives, compositions and use” (Imperial Chemical Industries PLC, priority 1990, dated 1993).
